In patent US9464291B2, “Methods and compositions for the treatment of cancer” (University of South Alabama, priority 2012, dated 2016):

Tested on: Shh, Ihh
Assay: Shh and Ihh protein levels in A2780-CP70 cells
Assay type: cell-based, human
Settings: cyclopamine-treated
Protocol: SHH and IHH protein levels were assessed in cyclopamine-treated A2780-CP70 cells by Western blot analysis. Referring to FIG. 28, SHH protein (51 kDa) was detected in cytoplasmic fractions, but not nuclear fractions of treated cells at 0 hr. […] At 48 hr, SHH protein levels were prominent in cytoplasmic and nuclear fractions, and remained prominent through 72 hr. Referring to FIG. 29, IHH protein (45 kDa) was detected in cytoplasmic and nuclear fractions of treated cells at 0 hr. At 6 hr, IHH protein levels were more prominent in nuclear fractions than in cytoplasmic fractions. At 24 hr, IHH protein levels were low in both nuclear and cytoplasmic fractions. However, at 48 hr IHH protein levels increased in nuclear fractions through to 72 hr. IHH was only weakly present in the cytoplasmic fractions between 48-72 hr. […] After 24 hr SHH and IHH protein levels were similar in nuclear and cytoplasmic fractions. SHH and IHH protein levels rebounded by 48 hr and 72 hr.
The effects of an IC50 dose of anti-Gli1 shRNA on cisplatin-sensitive A2780 cells and cisplatin-resistant A2780-CP70 cells were assessed. Cisplatin-sensitive A2780 cells and cisplatin-resisitant A2780-CP70 cells were treated with 2.0 μg/ml shRNA per 200 microliter well anti-Gli1 shRNA. Protein levels of Gli1, Gli2, c-jun, Shh, Ihh, and GAPDH (control) were measured. […]

CC1=C2C[C@H]3[C@@H](CC=C4C[C@@H](O)CC[C@@]43C)[C@@H]2CC[C@]12O[C@@H]1C[C@H](C)CN[C@H]1[C@H]2C [cyclopamine]
SHH and IHH protein levels: reduced at 24 hr
